Assay [1] deals with renal anemia model mice (腎性貧血モデルマウス). Description: Effect of HBP in renal anemia model mice (adenine sulfate-induced renal failure). Type of assay: in vivo, mouse.
Assay [2] deals with human ferroportin fused to EGFP (FPN-EGFP) (ヒトのフェロポーチン(FPN)にEGFPを融合させたタンパク質). Put plainly: Western blot of ferroportin (FPN-EGFP) in HEK293 cells treated with hepcidin. Format: cell-based. Conditions: HEK293 expressing FPN-EGFP. On the technique in general: A western blot detects proteins with antibodies after separation by electrophoresis.
The subject of assay [3] is HepG2 cells, human liver cancer-derived (ヒト肝癌由来細胞HepG2). Put plainly: Intracellular iron (ferritin ELISA) in HepG2 cells treated with hepcidin. Type of assay: cell-based. The note with it: Fig. 7A. Background: In an ELISA, binding on a coated surface is turned into a signal by an enzyme label.
The test system of assay [4] is COS-1 cells, monkey kidney-derived fibroblasts (サル腎臓由来線維芽細胞(COS-1)). Put plainly: Intracellular iron (ferritin ELISA) in FPN-EGFP-expressing COS-1 cells treated with hepcidin. Type of assay: cell-based. The note with it: COS-1 expressing FPN-EGFP, Fig. 7B.
In assay [5] the test system is C57/BL6 mice (マウス(C57/BL6)). Put plainly: Serum iron in mice given hepcidin. Type of assay: in vivo, mouse. Conditions: Fig. 7C.
The target in assay [6] is T1, hepcidin (ヘプシジン) (Homo sapiens, UniProt P81172).
T1 sequence (P81172 60-84 limits assumed): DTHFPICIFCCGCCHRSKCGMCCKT
Put plainly: Bio-layer interferometry (BLI) of the peptide on biotinylated hepcidin (Octet K2). Type of assay: binding. Also on record: ビオチン化ヘプシジン(Bachem社製); purchased Bachem. The note with it: peptide 2.5, 4, 6, 8 or 10 μM. (BLI is a label-free optical method that tracks binding on a fibre tip over time.)

The target of assay [7] is T1, hepcidin (ヘプシジン). Put plainly: Binding of the 12-amino-acid peptide to hepcidin, linear versus cyclised.
Assay [8] deals with T1, hepcidin (ヘプシジン). Put plainly: Phage display screening (Ph.D-12 library) on hepcidin-immobilised beads. Type of assay: binding. Also on record: ビオチン化ヘプシジン(Bachem社製); purchased Bachem. Conditions: displayed on M13 phage pIII; most frequent sequence among 64 plaques after the 5th panning.
The mark [9] stands for this setting: AdS-induced renal anemia mice, HBP day 15 to day 21 (7 times), blood on day 22, versus control (PBS), Fig. 4C-E.
Where [10] appears, read: peptide added simultaneously with hepcidin.

The values below come from patent publication JP2023117892A, “ヘプシジン結合ペプチド” (Public Interest Inc Foundation Oyokyo, priority 2022, dated 2023).

pKd: −log10 of the molar value. Positions of bridges follow the written chain, without caps; N, C: chain ends. Residues, ends and D or L forms follow the SMILES beside them. No end group written: not given here.

As for `CSCC[C@@H]1NC(=O)[C@H](CO)NC(=O)[C@@H]2CCCN2C(=O)[C@H](Cc2c[nH]c3ccccc23)NC(=O)[C@H](CCSC)NC(=O)[C@H](CC(=O)O)NC(=O)[C@H](Cc2c[nH]c3ccccc23)NC(=O)[C@H](CO)NC(=O)[C@@H](NC(=O)[C@H](C)NC(C)=O)CSSC[C@@H](C(=O)NCC(N)=O)NC(=O)CNC(=O)[C@H](CCC(=O)O)NC(=O)[C@H](C)NC(=O)[C@H](CCCCN)NC(=O)[C@H](Cc2c[nH]c3ccccc23)NC(=O)[C@H](CC(=O)O)NC1=O` [HBP, ACSWDMWPSMDWKAEGCG] (Ac-ACSWDMWPSMDWKAEGCG-NH2; disulfide 2-17), in assay [1] (setting [9]), the “hematocrit (HCt)” value is on record as “有意に上昇した”, the “hemoglobin (Hb)” value was “有意に上昇した” and the “red blood cell count (RBC)” value was “有意に上昇した”. Also, the “blood biochemistry showing improvement of anemia and renal failure” value in assay [1] (AdS-induced renal failure mice, HBP day 15 to day 21, day 22, BUN, CRE, serum iron, TSAT, ferritin, CRP, hepcidin, EPO, Fig. 5A-H) is reported as “貧血の改善及び腎不全の改善を示す結果が確認された”. Moreover, the “amount of ferroportin (FPN-EGFP)” value in assay [2] (peptide added simultaneously with human hepcidin, Fig. 6 lanes 4 and 5) is reported as “FPN-EGFP量の低下が抑制された”. Besides, the “intracellular iron (as ferritin)” value in assay [3] (setting [10]) was “細胞内鉄量の増加が抑制された”. Also, the “intracellular iron (as ferritin)” value in assay [4] (setting [10]) is listed as “細胞内鉄量の増加が抑制された”. The serum iron result in assay [5] (peptide given simultaneously with hepcidin) was “血中鉄量の減少が抑制された”. Also, the pKd at hepcidin (ヘプシジン) [6] (biotinylated hepcidin on streptavidin sensor chip, read-out: dissociation constant) is 7.54. For the same compound, on hepcidin (ヘプシジン) [6] (Fig. 3), the “specific binding to hepcidin” value is listed as “ヘプシジンに特異的に結合することが確認された”.
Consider WDMWPSMDWKAE, for which the values for the binding to hepcidin result in the assay with hepcidin (ヘプシジン) [7] (cyclised form) and with hepcidin (ヘプシジン) [7] (linear form) were “ヘプシジンに特異的に結合する” and “線状ではヘプシジンに結合しない”, respectively. Also, the “possibility of specific binding to hepcidin” value with hepcidin (ヘプシジン) [8] is reported as “ヘプシジンに特異的に結合する可能性が示された”.
Take “ヘプシジン: human hepcidin (Peptide Institute, Inc.) (DTHFPICIFCCGCCHRSKCGMCCKT; ends and bridges not checked; cysteine pairing not given here; UniProt P81172 60-84, looked up) [reference compound]”: the “amount of ferroportin (FPN-EGFP)” value in assay [2] (hepcidin added alone, Fig. 6 lane 3) was “フェロポーチンの量(FPN-EGFP量)は低下した”. Also, the “intracellular iron (as ferritin)” value in assay [3] (hepcidin alone) and in assay [4] (hepcidin alone) was “細胞内の鉄量は増加した” throughout. Further, the serum iron result in assay [5] (hepcidin alone) is “血中の鉄量は減少した”.
